Measurements reported in patent US20230203098A1, “HUMAN TRANSFERRIN RECEPTOR BINDING PEPTIDE” (priority 2020, published 2023).
Where two headings read alike, the source gives them in different places. Where a SMILES comes first, the peptide text is derived from it. Bridges are numbered along the chain shown (N, C = ends). [ ]: non-standard residue; d: D form. PEG12 = NCCOCCOCCOCCOCCOCCOCCOCCOCCOCCOCCOCCOCCC(=O)O; NMePhe(3-Cl) = CN[C@@H](Cc1cccc(Cl)c1)C(=O)O; NMeW = CN[C@@H](Cc1c[nH]c2ccccc12)C(=O)O; Phe(4-F) = N[C@@H](Cc1ccc(F)cc1)C(=O)O; NMeY = CN[C@@H](Cc1ccc(O)cc1)C(=O)O; NMeF = CN[C@@H](Cc1ccccc1)C(=O)O; PEG4 = NCCOCCOCCOCCOCCC(=O)O; Abu = CC[C@H](N)C(=O)O; Aib = CC(C)(N)C(=O)O

Target: transferrin receptor (hTfR) (Homo sapiens, UniProt P02786)
Test: Intermolecular interaction evaluation test between transferrin receptor (hTfR) and peptide by surface plasmon resonance (SPR)
Type: binding
Summary of the method: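 hTfR captured on Ni-NTA chip then amine-coupled; peptides run single-cycle kinetics at 5–100 nM in 10 mM HEPES pH 8.0, 150 mM NaCl, 0.05% Tween 20, 0.1% BSA, 1.0% DMSO. KD from least-squares curve fitting of sensorgrams.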

[1] = surface plasmon resonance, hTfR, read-out: KD value for hTfR by SPR (class symbol)
[2] = surface plasmon resonance, peptide vs hTfR, read-out: KD value for hTfR by SPR (class symbol)
[3] = SPR, linker and payload (FITC, VivoTag) conjugates, read-out: KD
[4] = binding to hTfR by SPR, Table 2 peptides, read-out: KD value (SPR) class
[5] = SPR, hTfR No. 894 variants with PEG12c linker (Table 2), read-out: KD

Chain of transferrin receptor (hTfR) (P02786 whole entry): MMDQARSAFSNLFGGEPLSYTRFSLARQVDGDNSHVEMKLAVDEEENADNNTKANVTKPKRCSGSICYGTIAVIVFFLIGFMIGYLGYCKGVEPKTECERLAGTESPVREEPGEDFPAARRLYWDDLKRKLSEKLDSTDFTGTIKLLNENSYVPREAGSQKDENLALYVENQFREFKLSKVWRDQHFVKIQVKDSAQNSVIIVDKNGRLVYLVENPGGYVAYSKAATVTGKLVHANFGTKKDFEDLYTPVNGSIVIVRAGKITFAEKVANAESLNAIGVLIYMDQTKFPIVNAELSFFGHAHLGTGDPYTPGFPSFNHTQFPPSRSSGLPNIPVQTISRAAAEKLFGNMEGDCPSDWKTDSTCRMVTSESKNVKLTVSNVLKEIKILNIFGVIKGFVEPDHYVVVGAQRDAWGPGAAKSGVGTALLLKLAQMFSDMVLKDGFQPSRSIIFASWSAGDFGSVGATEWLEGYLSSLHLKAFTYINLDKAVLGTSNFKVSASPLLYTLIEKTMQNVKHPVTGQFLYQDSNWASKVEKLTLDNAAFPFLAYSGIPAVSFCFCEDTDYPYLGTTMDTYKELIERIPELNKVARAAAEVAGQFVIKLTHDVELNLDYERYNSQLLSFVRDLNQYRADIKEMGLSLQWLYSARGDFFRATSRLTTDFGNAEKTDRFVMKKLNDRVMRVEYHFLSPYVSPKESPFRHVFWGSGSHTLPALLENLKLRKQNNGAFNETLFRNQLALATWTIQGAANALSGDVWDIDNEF

`CC[C@@H]1NC(=O)[C@H]([C@@H](C)CC)NC(=O)[C@H]([C@@H](C)CC)NC(=O)[C@H](Cc2ccc(OC)cc2)NC(=O)[C@H](Cc2ccc(O)cc2)NC(=O)[C@H](CC(N)=O)NC(=O)[C@H](Cc2c[nH]c3ccccc23)N(C)C(=O)[C@H](C(C)C)NC(=O)[C@H](Cc2cccc(Cl)c2)N(C)C(=O)[C@H](C(C)C)NC(=O)[C@H](C)NC(=O)CSC[C@@H](C(=O)NCCOCCOCCOCCOCCC(N)=O)NC(=O)[C@H](Cc2ccc(O)cc2)N(C)C(=O)[C@H](Cc2ccccc2)NC(=O)[C@@H](CCCNC(=N)N)NC1=O` [compound 359] ({CH2CO}-AV[NMePhe(3-Cl)]V[NMeW]NYY(Me)II[Abu][dR]F[NMeY]C[PEG4]-NH2; thioether N-15) gave a Kd [1] of 1 to 100 nM.

`CC[C@H](C)[C@@H]1NC(=O)[C@H](Cc2ccc(O)cc2)NC(=O)[C@H](Cc2ccc(O)cc2)NC(=O)[C@H](CC(N)=O)NC(=O)[C@H](Cc2c[nH]c3ccccc23)NC(=O)[C@H](C(C)C)NC(=O)[C@H](Cc2ccccc2)N(C)C(=O)[C@H](C(C)C)NC(=O)[C@H](C)NC(=O)CSC[C@@H](C(=O)NCCOCCOCCOCCOCCC(=O)N[C@H](CCCCNC(=O)c2ccc(-c3c4ccc(=O)cc-4oc4cc(O)ccc34)c(C(=O)O)c2)C(N)=O)NC(=O)[C@H](Cc2ccc(O)cc2)N(C)C(=O)[C@H](Cc2ccc(O)cc2)NC(=O)[C@H](CCCNC(=N)N)NC(=O)[C@H](CCCNC(=N)N)NC(=O)[C@H]([C@@H](C)CC)NC1=O` [compound 446] gave a Kd [2] of less than 1 nM.

For `CC[C@H](C)[C@@H]1NC(=O)[C@H](Cc2ccc(O)cc2)NC(=O)[C@H](Cc2ccc(O)cc2)NC(=O)[C@H](CC(N)=O)NC(=O)[C@H](Cc2c[nH]c3ccccc23)NC(=O)[C@H](C(C)C)NC(=O)[C@H](Cc2ccccc2)NC(=O)[C@H](C(C)C)NC(=O)[C@H](C)NC(=O)CSC[C@@H](C(=O)NCCOCCOCCOCCOCCOCCOCCOCCOCCOCCOCCOCCOCCC(=O)N[C@@H](CCCCNC(=O)c2ccc(-c3c4ccc(=O)cc-4oc4cc(O)ccc34)c(C(=O)O)c2)C(N)=O)NC(=O)[C@H](Cc2ccc(O)cc2)N(C)C(=O)[C@H](Cc2ccc(O)cc2)NC(=O)[C@H](CCCNC(=N)N)NC(=O)[C@H](CCCNC(=N)N)NC(=O)[C@H]([C@@H](C)CC)NC1=O` [compound 147], the Kd [3] was less than 1 nM.

In the case of `CC[C@H](C)[C@@H]1NC(=O)[C@H](Cc2ccc(OC)cc2)NC(=O)[C@H](Cc2ccc(O)cc2)NC(=O)[C@H](CC(N)=O)NC(=O)[C@H](Cc2c[nH]c3ccccc23)NC(=O)[C@H](C(C)C)NC(=O)[C@H](Cc2cccc(Cl)c2)N(C)C(=O)[C@H](C(C)C)NC(=O)[C@H](C)NC(=O)CSC[C@@H](C(=O)NCCOCCOCCOCCOCCC(N)=O)NC(=O)[C@H](Cc2ccc(O)cc2)N(C)C(=O)[C@H](Cc2ccccc2)NC(=O)[C@@H](CCCNC(=N)N)NC(=O)C(C)(C)NC(=O)[C@H]([C@@H](C)CC)NC1=O` [compound 310] ({CH2CO}-AV[NMePhe(3-Cl)]VWNYY(Me)II[Aib][dR]F[NMeY]C[PEG4]-NH2; thioether N-15), the Kd (surface plasmon resonance, peptide vs hTfR, read-out: KD value, hTfR binding by SPR (class symbol)) is reported as greater than 1000 nM.

`CC[C@H](C)[C@@H]1NC(=O)[C@H](Cc2ccc(O)cc2)NC(=O)[C@H](Cc2ccc(O)cc2)NC(=O)[C@H](CC(N)=O)NC(=O)[C@H](Cc2c[nH]c3ccccc23)NC(=O)[C@H](C(C)C)NC(=O)[C@H](Cc2ccccc2)N(C)C(=O)[C@H](C(C)C)NC(=O)[C@H](C)NC(=O)CSC[C@@H](C(=O)NCCOCCOCCOCCOCCOCCOCCOCCOCCOCCOCCOCCOCCC(N)=O)NC(=O)[C@H](Cc2ccc(O)cc2)N(C)C(=O)[C@H](Cc2ccc(O)cc2)NC(=O)[C@H](CCCNC(=N)N)NC(=O)[C@H](CCCNC(=N)N)NC(=O)[C@H]([C@@H](C)CC)NC1=O` [compound 420] gave a Kd [2] of 1 to 100 nM.

Work on `CC[C@H](C)[C@@H]1NC(=O)[C@H](Cc2ccc(O)cc2)NC(=O)[C@H](Cc2ccc(O)cc2)NC(=O)[C@H](CC(N)=O)NC(=O)[C@H](Cc2c[nH]c3ccccc23)NC(=O)[C@H](C(C)C)NC(=O)[C@H](Cc2ccccc2)NC(=O)[C@H](C(C)C)NC(=O)[C@H](C)NC(=O)CSC[C@@H](C(N)=O)NC(=O)[C@H](Cc2ccc(O)cc2)N(C)C(=O)[C@H](Cc2ccc(O)cc2)NC(=O)[C@H](CCCNC(=N)N)NC(=O)[C@H](CCCNC(=N)N)NC(=O)[C@H](CCCNC(=N)N)NC1=O` [compound 248] yielded a Kd [4] of 1 to 100 nM.

`CC[C@H](C)[C@@H]1NC(=O)[C@H](Cc2ccc(O)cc2)NC(=O)[C@H](Cc2ccc(O)cc2)NC(=O)[C@H](CC(N)=O)NC(=O)[C@H](Cc2ccc(OC)cc2)NC(=O)[C@H](C(C)C)NC(=O)[C@H](Cc2ccccc2)N(C)C(=O)[C@H](C(C)C)NC(=O)[C@H](C)NC(=O)CSC[C@@H](C(=O)NCCOCCOCCOCCOCCOCCOCCOCCOCCOCCOCCOCCOCCC(N)=O)NC(=O)[C@H](Cc2ccc(O)cc2)N(C)C(=O)[C@H](Cc2ccc(O)cc2)NC(=O)[C@H](CCCNC(=N)N)NC(=O)[C@H](CCCNC(=N)N)NC(=O)[C@H]([C@@H](C)CC)NC1=O` [compound 118] ({CH2CO}-AV[NMeF]VY(Me)NYYIIRRY[NMeY]C[PEG12]-NH2; thioether N-15) gave a Kd [5] of 1 to 100 nM.

`CC[C@H](C)[C@@H]1NC(=O)[C@H](Cc2ccc(O)cc2)NC(=O)[C@H](Cc2ccc(O)cc2)NC(=O)[C@H](CC(N)=O)NC(=O)[C@H](Cc2c[nH]c3ccccc23)NC(=O)[C@H](C(C)C)NC(=O)[C@H](Cc2ccccc2)N(C)C(=O)[C@H](C(C)C)NC(=O)[C@H](C)NC(=O)CSC[C@@H](C(=O)NCCOCCOCCOCCOCCOCCOCCOCCOCCOCCOCCOCCOCCC(N)=O)NC(=O)[C@H](Cc2ccc(O)cc2)N(C)C(=O)[C@H](Cc2ccc(O)cc2)NC(=O)[C@H](CCCNC(=N)N)NC(=O)[C@H](CCCNC(=N)N)N(C)C(=O)[C@H]([C@@H](C)CC)NC1=O` [compound 112] was tested, and the Kd [5] was 1 to 100 nM.

`CC[C@H](C)[C@@H]1NC(=O)[C@H](Cc2ccc(F)cc2)NC(=O)[C@H](Cc2ccc(O)cc2)NC(=O)[C@H](CC(N)=O)NC(=O)[C@H](Cc2c[nH]c3ccccc23)N(C)C(=O)[C@H](C(C)C)NC(=O)[C@H](Cc2cccc(Cl)c2)N(C)C(=O)[C@H](C(C)C)NC(=O)[C@H](C)NC(=O)CSC[C@@H](C(N)=O)NC(=O)[C@H](Cc2ccc(O)cc2)N(C)C(=O)[C@H](Cc2ccccc2)NC(=O)[C@@H](CCCNC(=N)N)NC(=O)[C@H](CCCNC(=N)N)NC(=O)[C@H]([C@@H](C)CC)NC1=O` [compound 467] ({CH2CO}-AV[NMePhe(3-Cl)]V[NMeW]NY[Phe(4-F)]IIR[dR]F[NMeY]C-NH2; thioether N-15) showed a Kd (SPR, hTfR, class symbols A-D, read-out: KD) of 1 to 100 nM.

`CC[C@H](C)[C@@H]1NC(=O)[C@H](Cc2ccc(OC)cc2)NC(=O)[C@H](Cc2ccc(O)cc2)NC(=O)[C@H](CC(N)=O)NC(=O)[C@H](Cc2c[nH]c3ccccc23)N(C)C(=O)[C@H](C(C)C)NC(=O)[C@H](Cc2cccc(Cl)c2)N(C)C(=O)[C@H](C(C)C)NC(=O)[C@H](C)NC(=O)CSC[C@@H](C(N)=O)NC(=O)[C@H](Cc2ccc(O)cc2)N(C)C(=O)[C@H](Cc2ccccc2)NC(=O)[C@H](CCCNC(=N)N)NC(=O)[C@H](CCCNC(=N)N)NC(=O)[C@H]([C@@H](C)CC)NC1=O` [compound 386] showed a Kd [1] of 1 to 100 nM.

`CC[C@H](C)[C@@H]1NC(=O)[C@H](Cc2ccc(O)cc2)NC(=O)[C@H](Cc2ccc(O)cc2)NC(=O)[C@H](CC(N)=O)NC(=O)[C@H](Cc2c[nH]c3ccccc23)NC(=O)[C@H](C(C)C)NC(=O)[C@H](Cc2ccccc2)N(C)C(=O)[C@H](C(C)C)NC(=O)[C@H](C)NC(=O)CSC[C@@H](C(=O)NCC(=O)N[C@H](CCC(=O)O)C(=O)N[C@H](CCC(=O)O)C(=O)N[C@H](CCC(=O)O)C(=O)N[C@@H](CO)C(=O)N[C@@H](CO)C(=O)N[C@@H](CSCC(=O)NC)C(N)=O)NC(=O)[C@H](Cc2ccc(O)cc2)N(C)C(=O)[C@H](Cc2ccc(O)cc2)NC(=O)[C@H](CCCNC(=N)N)NC(=O)[C@H](CCCNC(=N)N)NC(=O)[C@H]([C@@H](C)CC)NC1=O` [compound 424] gave a Kd [2] of 1 to 100 nM.

Compound `CC[C@H](C)[C@@H]1NC(=O)[C@H](Cc2ccc(OC)cc2)NC(=O)[C@H](Cc2ccc(O)cc2)NC(=O)[C@H](CC(N)=O)NC(=O)[C@H](Cc2c[nH]c3ccccc23)N(C)C(=O)[C@H](C(C)C)NC(=O)[C@H](Cc2cccc(Cl)c2)N(C)C(=O)[C@H](CCC(=O)O)NC(=O)[C@H](C)NC(=O)CSC[C@@H](C(=O)N[C@H](CCC(=O)O)C(=O)NCC(=O)NCC(=O)NCC(=O)N[C@@H](CO)C(=O)N[C@@H](CO)C(=O)N[C@@H](CS)C(N)=O)NC(=O)[C@H](Cc2ccc(O)cc2)N(C)C(=O)[C@H](Cc2ccccc2)NC(=O)[C@@H](CCCNC(=N)N)NC(=O)[C@H](CCCNC(=N)N)NC(=O)[C@H]([C@@H](C)CC)NC1=O` [compound 235] has a Kd [4] of 100 to 1000 nM.

For `CC[C@H](C)[C@@H]1NC(=O)[C@H](Cc2ccc(O)cc2)NC(=O)[C@H](Cc2ccc(O)cc2)NC(=O)[C@H](CC(N)=O)NC(=O)[C@H](Cc2c[nH]c3ccccc23)NC(=O)[C@H](C(C)C)NC(=O)[C@H](Cc2ccccc2)NC(=O)[C@H](C(C)C)NC(=O)[C@H](C)N(C)C(=O)CSC[C@@H](C(=O)NCCOCCOCCOCCOCCC(=O)N[C@@H](CNC(=O)c2ccc(-c3c4ccc(=O)cc-4oc4cc(O)ccc34)c(C(=O)O)c2)C(N)=O)NC(=O)[C@H](Cc2ccc(O)cc2)N(C)C(=O)[C@H](Cc2ccc(O)cc2)NC(=O)[C@H](CCCNC(=N)N)NC(=O)[C@H](CCCNC(=N)N)NC(=O)[C@H]([C@@H](C)CC)NC1=O` [compound 161], the Kd [3] was 1 to 100 nM.

With `CC[C@H](C)[C@@H]1NC(=O)[C@H](Cc2ccc(O)cc2)NC(=O)[C@H](Cc2ccc(O)cc2)NC(=O)[C@H](CC(N)=O)NC(=O)[C@H](Cc2c[nH]c3ccccc23)NC(=O)[C@H](C(C)C)NC(=O)[C@H](Cc2ccccc2)N(C)C(=O)[C@H](C(C)C)NC(=O)[C@H](C)NC(=O)CSC[C@@H](C(=O)N[C@@H](CCCCNC(=O)C2CCC(CN3C(=O)C=CC3=O)CC2)C(N)=O)NC(=O)[C@H](Cc2ccc(O)cc2)N(C)C(=O)[C@H](Cc2ccc(O)cc2)NC(=O)[C@H](CCCNC(=N)N)NC(=O)[C@H](CCCNC(=N)N)NC(=O)[C@H]([C@@H](C)CC)NC1=O` (some centres unmarked) [compound 186] the Kd (hTfR binding by SPR, hTfR No. 894 variant peptides, linker-added peptides and payload conjugates (Table 2), read-out: KD value obtained from the SPR measurement) was 1 to 100 nM.
